Experimental data: patent US20260226073A1 (AURIGENE ONCOLOGY LIMITED, priority 2023, published 2026)

What follows are compounds tested against T1, human recombinant CBL-b (human Biotin CBL-b recombinant protein a.a. 39-426) (Homo sapiens, UniProt Q13191) (assay: Biochemical assay for CBL-b inhibition (ligand displacement TR-FRET)). Details: 50 nM CBL-b, 0.3 μM Bodipy FL-Probe, read-out: IC50 (CBL-b inhibition, group).
T1 construct: human Biotin CBL-b recombinant protein a.a; 39-426; Biotin (biotinylated); made in house
Type: binding
Experimental: The inhibitory activity of the test compounds was assessed by Ligand displacement TR-FRET assay. The human recombinant CBL-b (human Biotin CBL-b recombinant protein a.a. 39-426; synthesised in-house) was diluted in enzyme assay buffer (20 mM HEPES, 150 mM NaCl, 0.01% Triton X, 0.01% BSA, 0.5 mM TCEP) in a 10 μl volume and plated in 384-well plates (Cat #781075, Greiner) to a final concentration of 50 nM. The enzyme/compound mixture was incubated at RT for 60 min. The Bodipy FL-Probe described in WO 2020/210508 (synthesized in-house) diluted in enzyme assay buffer was added to the plate and incubated for 60 min RT, the final probe concentration was 0.3 μM. After 60 min incubation, 10 μl of detection mix (Terbium Streptavidin, (Cat #PV3576, Invitrogen) diluted in 1× Lance buffer) was added and incubated for 60 min at room temperature. Time-resolved fluorescence (excitation, 320 nm; emission donor, 615 nm; emission acceptor, 665 nm) was monitored by using 2030 multilabel reader Victor5 (PerkinElmer). The IC50 (concentration for half maximal inhibition) and % maximum inhibition of the compounds were estimated by fitting the dose response data to a sigmoidal curve fitting equation using Graph pad Prism software V. 8.

T1 sequence (Q13191 39-426): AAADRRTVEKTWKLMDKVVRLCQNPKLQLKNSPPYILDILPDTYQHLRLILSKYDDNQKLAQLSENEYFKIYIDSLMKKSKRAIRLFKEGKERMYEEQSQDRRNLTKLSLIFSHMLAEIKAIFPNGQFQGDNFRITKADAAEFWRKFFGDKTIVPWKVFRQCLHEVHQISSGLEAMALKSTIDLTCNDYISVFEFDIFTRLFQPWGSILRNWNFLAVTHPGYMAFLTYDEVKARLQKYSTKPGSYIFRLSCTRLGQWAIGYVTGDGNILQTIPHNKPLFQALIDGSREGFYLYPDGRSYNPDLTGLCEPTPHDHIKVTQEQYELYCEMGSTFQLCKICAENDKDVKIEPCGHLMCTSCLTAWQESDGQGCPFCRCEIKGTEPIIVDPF

Row | IC50 [µM] | SMILES
1 | 0.3 to 5 | C[C@@H]1CN(Cc2cc(N3Cc4ccc(C5(Cc6nncn6C)COC5)cc4C3=O)nc(C(F)(F)F)c2)CCN1 [Compound 96, (R)-6-(3-((4-Methyl-4H-1,2,4-triazol-3-yl)methyl)oxetan-3-yl)-2-(4-((3-methylpiperazin-1-yl)methyl)-6-(trifluoromethyl)pyridin-2-yl)isoindolin-1-one]
2 | 0.3 to 5 | C[C@@H]1CN(Cc2cc(N3Cc4ccc(C5(Cc6nncn6C)COC5)cc4C3=O)nc(C(F)(F)F)c2)CCN1C [Compound 97, (R)-2-(4-((3,4-Dimethylpiperazin-1-yl)methyl)-6-(trifluoromethyl)pyridin-2-yl)-6-(3-((4-methyl-4H-1,2,4-triazol-3-yl)methyl)oxetan-3-yl)isoindolin-1-one]
3 | 0.3 to 5 | C[C@@H]1CN(Cc2cc(N3Cc4ccc(C5(Cc6nncn6C)COC5)cc4C3=O)nc(C(F)(F)F)c2)C[C@H](C)N1 [Compound 98, 2-(4-(((3R,5S)-3,5-Dimethylpiperazin-1-yl)methyl)-6-(trifluoro-methyl)pyridin-2-yl)-6-(3-((4-methyl-4H-1,2,4-triazol-3-yl)methyl)oxetan-3-yl)-isoindolin-1-one]
4 | 0.3 to 5 | Cn1cnnc1CC1(c2ccc3c(c2)C(=O)N(c2cc(CNCCOCCOCCOCCN)cc(Cl)n2)C3)COC1 [Compound 99, 2-(4-(13-Amino-5,8,11-trioxa-2-azatridecyl)-6-chloropyridin-2-yl)-6-(3-((4-methyl-4H-1,2,4-triazol-3-yl)methyl)oxetan-3-yl)isoindolin-1-one]
5 | 0.3 to 5 | CC(C)NCC(O)c1cc(N2Cc3ccc(C4(Cc5nncn5C)COC4)cc3C2=O)cc(C(F)(F)F)c1 (stereo not shown) [Compound 100, 2-(3-(1-Hydroxy-2-(isopropylamino)ethyl)-5-(trifluoromethyl)-phenyl)-6-(3-((4-methyl-4H-1,2,4-triazol-3-yl)methyl)oxetan-3-yl)isoindolin-1-one]
6 | 0.3 to 5 | C[C@H]1CCCN(Cc2cc(Cl)nc(N3Cc4ccc(-c5c(-c6nncn6C)cnn5C)cc4C3=O)c2)C1 [Compound 114, (S)-2-(6-Chloro-4-((3-methylpiperidin-1-yl)methyl)pyridin-2-yl)-6-(1-methyl-4-(4-methyl-4H-1,2,4-triazol-3-yl)-1H-pyrazol-5-yl)isoindolin-1-one]
7 | < 0.08 | C[C@H]1CCCN(Cc2cc(Cl)nc(N3Cc4ccc(-c5ccccc5-c5nncn5C)cc4C3=O)c2)C1 [Compound 118, (S)-2-(6-Chloro-4-((3-methylpiperidin-1-yl)methyl)pyridin-2-yl)-6-(2-(4-methyl-4H-1,2,4-triazol-3-yl)phenyl)isoindolin-1-one]
8 | 0.3 to 5 | Cn1cc2c(n1)CCCN2Cc1cc(N2Cc3ccc(C4(Cc5nncn5C)COC4)cc3C2=O)nc(C(F)(F)F)c1 [Compound 128, 2-(4-((2-Methyl-2,5,6,7-tetrahydro-4H-pyrazolo[4,3-b]pyridin-4-yl)methyl)-6-(trifluoromethyl)pyridin-2-yl)-6-(3-((4-methyl-4H-1,2,4-triazol-3-yl)methyl)oxetan-3-yl)isoindolin-1-one]
9 | 0.08 to 0.3 | Cc1nc(CNCc2cc(Cl)nc(N3Cc4ccc(C5(Cc6nncn6C)COC5)cc4C3=O)c2)cs1 [Compound 129, 2-(6-Chloro-4-((((2-methylthiazol-4-yl)methyl)amino)methyl)-pyridin-2-yl)-6-(3-((4-methyl-4H-1,2,4-triazol-3-yl)methyl)oxetan-3-yl)isoindolin-1-one]
10 | 0.08 to 0.3 | Cn1cnnc1CC1(c2ccc3c(c2)C(=O)N(c2cc(CNCC4(F)CC4)cc(Cl)n2)C3)COC1 [Compound 130, 2-(6-Chloro-4-((((1-fluorocyclopropyl)methyl)amino)methyl)-pyridin-2-yl)-6-(3-((4-methyl-4H-1,2,4-triazol-3-yl)methyl)oxetan-3-yl)isoindolin-1-one]
11 | 0.3 to 5 | Cc1cc(CO)cc(N2Cc3ccc(-c4ccc(F)cc4-c4nncn4C)cc3C2=O)n1 [Compound 136, 6-(4-Fluoro-2-(4-methyl-4H-1,2,4-triazol-3-yl)phenyl)-2-(4-(hydroxymethyl)-6-methylpyridin-2-yl)isoindolin-1-one]
12 | 0.08 to 0.3 | COC1(CNCc2cc(C)nc(N3Cc4ccc(-c5ccc(F)cc5-c5nncn5C)cc4C3=O)c2)CC1 [Compound 137, 6-(4-Fluoro-2-(4-methyl-4H-1,2,4-triazol-3-yl)phenyl)-2-(4-((((1-methoxycyclopropyl)methyl)amino)methyl)-6-methylpyridin-2-yl)isoindolin-1-one]
13 | 0.3 to 5 | C[C@H]1CCCN(Cc2cc(N3Cc4ccc(C5(Cc6nncn6C)COC5)cc4C3=O)nc(C(F)(F)F)c2)[C@H]1C [Compound 138]
14 | 0.08 to 0.3 | C[C@H]1CCCN(Cc2ccnc(N3Cc4ccc(C5(Cc6nncn6C)COC5)cc4C3=O)c2)C1 [Compound 149]
15 | 0.08 to 0.3 | CC(Cc1nncn1C)c1cnc2c(c1)C(=O)N(c1cc(CN3CCC[C@H](C)C3)cc(Cl)n1)C2 (stereo partly shown) [Compound 150]
16 | 0.08 to 0.3 | Cn1cnnc1CC1(c2ccc3c(c2)C(=O)N(c2cc(CNCC4CCCCC4)cc(Cl)n2)C3)COC1 [Compound 153]
17 | 0.08 to 0.3 | C[C@H]1CCCN(Cc2cc(Cl)nc(N3Cc4ccc(CCc5nncn5C)cc4C3=O)c2)C1 [Compound 154]
18 | 0.3 to 5 | CC(C)C(Cc1nncn1C)c1ccc2c(c1)C(=O)N(c1cc(CN3CCC[C@H](C)C3)cc(Cl)n1)C2 (stereo partly shown) [Compound 165]
19 | 0.3 to 5 | C[C@H]1CCCN(Cc2cc(Cl)nc(N3Cc4ccc(C(Cc5nncn5C)C5CCC5)cc4C3=O)c2)C1 (stereo partly shown) [Compound 173]
20 | 0.08 to 0.3 | Cn1cnnc1CC1(c2ccc3c(c2)C(=O)N(c2cc(CN4CCCC(O)CC4)cc(Cl)n2)C3)COC1 (stereo not shown) [Compound 174]
21 | 0.3 to 5 | C[C@@H]1CN(Cc2cc(Cl)nc(N3Cc4ccc(C5(Cc6nncn6C)COC5)cc4C3=O)c2)C[C@@H](C)O1 [Compound 177]
22 | 0.08 to 0.3 | Cn1cnnc1CC1(c2ccc3c(c2)C(=O)N(c2cc(CNCC4COC4)cc(Cl)n2)C3)COC1 [Compound 183]
23 | 0.08 to 0.3 | Cn1cnnc1CC1(c2ccc3c(c2)C(=O)N(c2cc(CN4CCC(C)(F)C4)cc(Cl)n2)C3)COC1 (stereo not shown) [Compound 184]

Row | IC50 [µM] | SMILES
24 | 0.08 to 0.3 | Cc1nc(CNCC2CC2)cc(N2Cc3ccc(C4(Cc5nncn5C)COC4)cc3C2=O)n1 [Compound 186]
25 | 0.3 to 5 | C[C@@H]1CN(Cc2cc(Cl)nc(N3Cc4ccc(C5(Cc6nncn6C)COC5)cc4C3=O)c2)C[C@H](C)O1 [Compound 191]
26 | 0.3 to 5 | Cn1cnnc1CC1(c2ccc3c(c2)C(=O)N(c2cc(CN4CCC5OCCC54)cc(Cl)n2)C3)COC1 (stereo not shown) [Compound 192]
27 | 0.08 to 0.3 | Cn1cnnc1CC1(c2ccc3c(c2)C(=O)N(c2cc(CNCc4nccs4)cc(Cl)n2)C3)COC1 [Compound 194]
28 | 0.3 to 5 | CC1CCCN1Cc1cc(Cl)nc(N2Cc3ccc(C4(Cc5nncn5C)COC4)cc3C2=O)c1 (stereo not shown) [Compound 200]
29 | 0.08 to 0.3 | Cn1cnnc1CC1(c2ccc3c(c2)C(=O)N(c2cc(CNCc4ccccn4)cc(Cl)n2)C3)COC1 [Compound 203]
30 | 0.08 to 0.3 | Cn1cnnc1CC1(c2ccc3c(c2)C(=O)N(c2cc(CNCC4(C(F)(F)F)CC4)cc(Cl)n2)C3)COC1 [Compound 204]
31 | 0.3 to 5 | Cn1cnnc1CC1(c2ccc3c(c2)C(=O)N(c2cc(CNCc4ncco4)cc(Cl)n2)C3)COC1 [Compound 208]
32 | 0.3 to 5 | Cn1cc(CNCc2cc(Cl)nc(N3Cc4ccc(C5(Cc6nncn6C)COC5)cc4C3=O)c2)cn1 [Compound 211]
33 | 0.3 to 5 | Cn1ccc(CNCc2cc(Cl)nc(N3Cc4ccc(C5(Cc6nncn6C)COC5)cc4C3=O)c2)n1 [Compound 212]
34 | 0.08 to 0.3 | Cc1ccc(CNCc2cc(Cl)nc(N3Cc4ccc(C5(Cc6nncn6C)COC5)cc4C3=O)c2)o1 [Compound 226]
35 | 0.3 to 5 | Cn1cnnc1CC1(c2ccc3c(c2)C(=O)N(c2cc(CNC(C)(C)C4CC4)cc(Cl)n2)C3)COC1 [Compound 228]
36 | 0.3 to 5 | Cc1cccc(CNCc2cc(Cl)nc(N3Cc4ccc(C5(Cc6nncn6C)COC5)cc4C3=O)c2)n1 [Compound 229]
37 | 0.08 to 0.3 | Cn1cnnc1CC1(c2ccc3c(c2)C(=O)N(c2cc(CNC45CC(C4)C5)cc(Cl)n2)C3)COC1 [Compound 235]
38 | 0.3 to 5 | Cc1ccnc(CNCc2cc(Cl)nc(N3Cc4ccc(C5(Cc6nncn6C)COC5)cc4C3=O)c2)c1 [Compound 236]
39 | 0.08 to 0.3 | Cn1cnnc1CC1(c2ccc3c(c2)C(=O)N(c2cc(CNc4ccccn4)cc(Cl)n2)C3)COC1 [Compound 238]
40 | 0.08 to 0.3 | Cn1cnnc1CC1(c2ccc3c(c2)C(=O)N(c2cc(CNCC4(C#N)CCC4)cc(Cl)n2)C3)COC1 [Compound 243]
41 | 0.3 to 5 | CC1CCNC(c2cc(Cl)nc(N3Cc4ccc(C5(Cc6nncn6C)COC5)cc4C3=O)c2)C1 (stereo not shown) [Compound 249]
42 | 0.08 to 0.3 | CC1CCC(CNCc2cc(Cl)nc(N3Cc4ccc(C5(Cc6nncn6C)COC5)cc4C3=O)c2)O1 (stereo not shown) [Compound 250]
43 | 0.08 to 0.3 | CCCC(Cc1nncn1C)c1ccc2c(c1)C(=O)N(c1cc(CNCC3CC3)cc(Cl)n1)C2 (stereo not shown) [Compound 252]
44 | 0.08 to 0.3 | COc1cc(CNCC2CCC2)cc(N2Cc3ccc(C(C)Cc4nncn4C)cc3C2=O)n1 (stereo not shown) [Compound 254]
45 | 0.3 to 5 | Cc1cc(CNCC2CC2)cc(N2Cc3ccc(-c4ccc(F)c(F)c4-c4nncn4C)cc3C2=O)n1 [Compound 257]
46 | < 0.08 | Cc1cc(CN2CCC3(CCC3)C2)cc(N2Cc3ccc(-c4ccc(F)cc4-c4nncn4C)cc3C2=O)n1 [Compound 258]
